# Experimental data as given in paper PMC6429183, “Identification of Compounds That Inhibit Estrogen-Related Receptor Alpha Signaling Using High-Throughput Screening Assays” (Molecules, 2019).
# “And” between values parts separate entries of the source, which are not always exact repeats. Identical values can stand only once. Like-named read-outs stand apart in the source and are kept apart here.
# Key:
# [1] = test system: COX4I1; test: qRT-PCR mRNA expression of ERR downstream gene COX4I1; assay type: cell-based; conditions: ERR reporter cells, vs GAPDH, DMSO = 0%
# Method: Total RNA was isolated from treated ERR reporter cells using an RNeasy Mini Kit (Qiagen, Germantown, MD, USA), homogenized using a QIAshredder (Qiagen), and reverse transcribed with a High-Capacity RNA-to-cDNA™ Kit (ThermoFisher Scientific, Inc.) following the manufacturers’ instructions. Expression of ERRα, COX8α, IDH3α, PPARα, COX4I1, and cytochrome c genes was normalized against GAPDH. All primers were purchased from ThermoFisher Scientific, Inc. Real-time PCR assays were performed in 384-well plates on a QuantStudio 5 (Applied Biosystems, Foster City, CA, USA) with TaqMan™ Gene Expression Master Mix (ThermoFisher Scientific, Inc.). Induction values were calculated using the equation: Fold = 2^ΔΔCt, where ΔCt represents the differences in cycle threshold numbers between each of the target genes and GAPDH, and ΔΔCt represents the relative change in these differences between control and treatment groups. […]
# [2] = test system: ERR reporter HEK293 cells; test: CellTiter-Fluor cell viability assay multiplexed with ERR reporter assay; assay type: cell-based
# Method: (§1) ERR or PGC/ERR reporter HEK293 cells suspended in culture medium without puromycin were dispensed at 2500 cells/5 μL/well in tissue culture–treated 1536-well white assay plates (Greiner Bio-One North America, Monroe, NC, USA) using a Thermo Scientific Multidrop Combi (ThermoFisher Scientific, Inc.). […] After the cells were incubated at 37 °C with 5% CO2 for 6 h, 23 nL of compounds or control, XTC790, was transferred into the assay plates using a Wako Pintool station (Wako Automation, San Diego, CA, USA). The assay plates were incubated at 37 °C for 18 h, followed by the addition of 5 μL ONE-Glo luciferase reagent (Promega, Madison, WI, USA) using a Flying Reagent Dispenser (Aurora Discovery, Carlsbad, CA, USA). After 30 min of incubation at room temperature, the luminescence intensity of the assay plates was quantified using a ViewLux plate reader (PerkinElmer, Shelton, CT, USA). The assays were performed three times for each compound concentration. These ERR and PGC/ERR reporter assays were multiplexed with the CellTiter-Fluor Cell Viability Assay (Promega), a fluorescence-based cell viability assay, to assess compound cytotoxicity.
# The qHTS data were analyzed as described previously. […] The DMSO-only compound plates at the beginning and end of the compound plate stack were used to correct the data set by applying an in-house pattern correction algorithm. The half maximum inhibition values (IC50) for each compound and maximum response (efficacy) values were obtained by fitting the concentration-response curves of each compound to a four-parameter Hill equation [91]. […] For each reading, the activity outcome of a test compound was first categorized by the average curve rank from the triplicate runs and the reproducibility calls. The final activity outcome of each compound was based on the ERR antagonist readout activity and cell viability counter screen.
# [3] = test system: PPARα; test: qRT-PCR mRNA expression of ERR downstream gene PPARα; assay type: cell-based; conditions: ERR reporter cells, vs GAPDH, DMSO = 0%
# [4] = test system: IDH3α; test: qRT-PCR mRNA expression of ERR downstream gene IDH3α; assay type: cell-based; conditions: ERR reporter cells, vs GAPDH, DMSO = 0%
# Method: (§2) Total RNA was isolated from treated ERR reporter cells using an RNeasy Mini Kit (Qiagen, Germantown, MD, USA), homogenized using a QIAshredder (Qiagen), and reverse transcribed with a High-Capacity RNA-to-cDNA™ Kit (ThermoFisher Scientific, Inc.) following the manufacturers’ instructions. Expression of ERRα, COX8α, IDH3α, PPARα, COX4I1, and cytochrome c genes was normalized against GAPDH. All primers were purchased from ThermoFisher Scientific, Inc. Real-time PCR assays were performed in 384-well plates on a QuantStudio 5 (Applied Biosystems, Foster City, CA, USA) with TaqMan™ Gene Expression Master Mix (ThermoFisher Scientific, Inc.). Induction values were calculated using the equation: Fold = 2^ΔΔCt, where ΔCt represents the differences in cycle threshold numbers between each of the target genes and GAPDH, and ΔΔCt represents the relative change in these differences between control and treatment groups. Experimental data are presented as a mean of triplicate determinations ± SD. Statistical comparisons were made by t-test, while the statistical significance was set at p values of <0.05 (light blue), <0.01 (medium blue), and <0.001 (dark blue).
# [5] = biological target: T1, estrogen-related receptor alpha (ERRα) (Homo sapiens, UniProt P11474); test: ERR reporter (luciferase) antagonist qHTS assay, ERR-HEK293; conditions: for EC50: mean ± SD, triplicate; for ERR-HEK293 Follow-Up Efficacy: follow-up screen; for ERR-HEK293 Follow-Up Efficacy / ERR-HEK293 Primary Efficacy: relative to XCT790 = −100%; for ERR-HEK293 Primary Efficacy: primary qHTS, DMSO = 0%
# T1 sequence (P11474 1-423): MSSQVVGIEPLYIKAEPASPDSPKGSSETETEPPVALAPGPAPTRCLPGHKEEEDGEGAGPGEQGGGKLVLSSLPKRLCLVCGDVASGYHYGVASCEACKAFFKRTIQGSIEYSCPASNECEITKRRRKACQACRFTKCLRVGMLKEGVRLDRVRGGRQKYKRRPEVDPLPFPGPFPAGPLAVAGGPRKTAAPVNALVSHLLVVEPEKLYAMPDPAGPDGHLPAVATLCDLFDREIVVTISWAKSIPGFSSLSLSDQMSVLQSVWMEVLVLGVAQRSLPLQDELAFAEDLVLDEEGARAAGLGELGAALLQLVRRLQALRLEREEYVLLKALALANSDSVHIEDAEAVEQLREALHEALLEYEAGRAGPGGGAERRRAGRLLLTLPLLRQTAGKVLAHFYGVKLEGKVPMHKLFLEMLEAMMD
# [6] = test system: Nrf2/antioxidant response element (ARE); test: Nrf2/ARE-HepG2 β-lactamase reporter agonist assay; assay type: cell-based; conditions: agonist mode, heatmap outcome
# Method: After the assay plates were incubated at 37 °C for 5–6 h, 23 nL of compounds dissolved in DMSO or positive controls were transferred to the assay plates via a Wako Pintool station (Wako). Except for ARE and p53, all other assays received 1 µL/well agonist (10 nM R1881 for AR; 0.5 and 5 nM β-estradiol for ERα and ERβ respectively; 300 µM CDCA for FXR; 50 nM Rosiglitazone for PPARγ; and 5 nM R5020 for PR) or assay medium using a Flying Reagent Dispenser (FRD). The assay plates were incubated for 16 h (AR, Nrf2/ARE, ERβ, FXR, p53, and PR), 17 h (PPARγ), or 18 h (ERα) at 37 °C, and 1 µL/well LiveBLAzer™ FRET-B/G CCF4-AM substrate (ThermoFisher Scientific, Inc.) detection mix was added using an FRD and the plates were incubated at room temperature for 2 h. […] Data were expressed as the ratio of 460/530 nm emission values.
# [7] = test system: cytochrome c; test: qRT-PCR mRNA expression of ERR downstream gene cytochrome c; assay type: cell-based; conditions: ERR reporter cells, vs GAPDH, DMSO = 0%
# Method: as §2
# [8] = test system: PGC/ERR reporter HEK293 cells; test: CellTiter-Fluor cell viability assay multiplexed with PGC/ERR reporter assay; assay type: cell-based; conditions: for EC50: Homo sapiens; for PGC/ERR-HEK293 Follow-Up Viability EC50: follow-up screen
# Method: as §1
# The qHTS data were analyzed as described previously. Each titration point was normalized relative to the positive control compound (XCT790 = −100%) and DMSO-only wells (0%) according to the following equation: % Activity = [(Vcompound − VDMSO)/(VDMSO − Vpos)] × 100, where Vcompound denotes the compound well values, Vpos denotes the median value of the positive control wells, and VDMSO denotes the median values of the DMSO-only wells. The DMSO-only compound plates at the beginning and end of the compound plate stack were used to correct the data set by applying an in-house pattern correction algorithm. The half maximum inhibition values (IC50) for each compound and maximum response (efficacy) values were obtained by fitting the concentration-response curves of each compound to a four-parameter Hill equation [91]. Compounds were designated as Class 1–4 according to the type of concentration–response curve observed. For each reading, the activity outcome of a test compound was first categorized by the average curve rank from the triplicate runs and the reproducibility calls. The final activity outcome of each compound was based on the ERR antagonist readout activity and cell viability counter screen.
# [9] = biological target: T2, ERRα with PGC-1α (PGC/ERR pathway) (Homo sapiens, UniProt P11474); test: PGC/ERR reporter (luciferase) qHTS assay, PGC/ERR-HEK293; conditions: for EC50: mean ± SD, triplicate; for PGC/ERR-HEK293 Follow-Up Efficacy: follow-up screen; for PGC/ERR-HEK293 Follow-Up Efficacy / PGC/ERR-HEK293 Primary Efficacy: negative = antagonism, positive = agonism; for activity in the ERR/PGC assay: in words; for PGC/ERR-HEK293 Primary Efficacy: primary qHTS
# T2 sequence (P11474 1-423): T1 sequence (P11474 1-423)
# Method: The ERR reporter HEK293 cells were cultured in high glucose DMEM medium (ThermoFisher Scientific, Inc., Waltham, MA, USA) supplemented with 10% fetal bovine serum (FBS; ThermoFisher Scientific, Inc.), 4 mM of L-glutamine (ThermoFisher Scientific, Inc.), 1 mM of sodium pyruvate (ThermoFisher Scientific, Inc.), 100 U/mL of penicillin and 100 mg/mL of streptomycin (ThermoFisher Scientific, Inc.). PGC/ERR reporter HEK293 cells were cultured in the same medium as the ERR reporter HEK293 cells with an additional 1 μg/mL puromycin (ThermoFisher Scientific, Inc.) as the selection marker for PGC-1α expression.
# The DMSO-only compound plates at the beginning and end of the compound plate stack were used to correct the data set by applying an in-house pattern correction algorithm [90]. The half maximum inhibition values (IC50) for each compound and maximum response (efficacy) values were obtained by fitting the concentration-response curves of each compound to a four-parameter Hill equation [91]. […] For each reading, the activity outcome of a test compound was first categorized by the average curve rank from the triplicate runs and the reproducibility calls. The final activity outcome of each compound was based on the ERR antagonist readout activity and cell viability counter screen.
# [10] = test system: COX8α; test: qRT-PCR mRNA expression of ERR downstream gene COX8α; assay type: cell-based; conditions: ERR reporter cells, vs GAPDH, DMSO = 0%
# Method: as §2
# [11] = Homo sapiens, HEK293, primary qHTS, viability counter screen, read-out: ERR-HEK293 Primary Viability EC50 (converted)
# [12] = ERR-HEK293 Follow-Up EC50, follow-up (confirmation) screen
# [13] = ERR-HEK293 Primary EC50, primary qHTS, 18 h, 15 concentrations
# [14] = HEK293, primary qHTS, read-out: PGC/ERR-HEK293 Primary Viability EC50 (converted)
# [15] = PGC/ERR-HEK293 Follow-Up EC50, follow-up screen
# [16] = PGC/ERR-HEK293 Primary EC50, primary qHTS, 18 h
Molecule,"EC50 [2, 11] [nM]","EC50 [5, 12] [nM]","EC50 [5, 13] [nM]",ERR-HEK293 Follow-Up Efficacy [5] [%],activity in the Nrf2-ARE assay [6],"EC50 [8, 14] [nM]","EC50 [9, 15] [nM]","EC50 [9, 16] [nM]",PGC/ERR-HEK293 Follow-Up Efficacy [9] [%],activity in the ERR/PGC assay [9],PGC/ERR-HEK293 Primary Efficacy [9] [%],"ERR-HEK293 Follow-Up Viability EC50 ([2]; follow-up screen, viability)",ERR-HEK293 Primary Efficacy [5] [%],PGC/ERR-HEK293 Follow-Up Viability EC50 [8],other results
CC(C)C[C@H](NC(=O)[C@H](Cc1ccccc1)NC(=O)c1cnccn1)B(O)O [Bortezomib],65.6,16.7 ± 6.08,17 ± 7.81,−125 ± 11.0,active agonists,62.8,9.62 ± 4.52,16.9 ± 5.54,−116 ± 12.7,antagonism,−92.2 ± 11.8,–,–,–,"Percent inhibition of mRNA gene expression, COX4I1 ([1]; 20 µM): 35.3 ± 3.49%; EC50 ([2]; Homo sapiens, HEK293, follow-up screen, viability, read-out: ERR-HEK293 Follow-Up Viability EC50 (converted)): 78 nM; IC50 ([2]; Homo sapiens, HEK293, primary screen, concurrent with ERR antagonist assay): ~66 nM; Percent inhibition of mRNA gene expression, PPARα ([3]; 20 µM): 14.0 ± 5.17%; Percent inhibition of mRNA gene expression, IDH3α ([4]; 20 µM): 17.6% and 17.6 ± 4.66%; Percent inhibition of mRNA gene expression, Cytochrome C ([7]; 20 µM): 48.3% and 48.3 ± 1.92%; EC50 ([8]; HEK293, follow-up screen, read-out: PGC/ERR-HEK293 Follow-Up Viability EC50 (converted)): 64.3 nM"
COc1cc([C@@H]2c3cc4c(cc3[C@@H](O[C@@H]3O[C@@H]5CO[C@@H](C)O[C@H]5[C@H](O)[C@H]3O)[C@H]3COC(=O)[C@H]23)OCO4)cc(OC)c1O [Etoposide],56300,8120 ± 4420,9240 ± 8560,−88.9 ± 6.62,active agonists,56300,10700 ± 2440,2100 ± 526,89.3 ± 19.5,agonist activity,62.9 ± 2.71,Inactive,−115 ± 6.85,Inactive,"Percent inhibition of mRNA gene expression, IDH3α ([4]; 18 µM): 7.19 ± 23.5%; activity in the ERR assay ([5]; in words): antagonistic activity; Percent inhibition of mRNA gene expression, Cytochrome C ([7]; 18 µM): 6.55 ± 3.18%"
Cc1nc(N)nc(N)c1-c1ccc(Cl)c(Cl)c1 [Methodichlorophen],–,1600 ± 104,1060 ± 122,−104 ± 7.68,active agonists,–,1570 ± 354,845 ± 97.1,−61.5 ± 12.6,antagonism,−68.4 ± 7.64,Inactive,−90.9 ± 4.94,Inactive,"Percent inhibition of mRNA gene expression, COX4I1 ([1]; 2 µM): 12.5% and 12.5 ± 2.60%; ERR-HEK293 Primary Viability EC50 ([2]; primary qHTS, viability counter screen): Inactive; Percent inhibition of mRNA gene expression, IDH3α ([4]; 2 µM): 50.8% and 50.8 ± 8.69%; ERR-HEK293 Primary Efficacy ([5]; listed as methodichlorophen): −90.9%; Percent inhibition of mRNA gene expression, Cytochrome C ([7]; 2 µM): 47.6% and 47.6 ± 7.45%; PGC/ERR-HEK293 Primary Viability EC50 ([8]; primary qHTS): Inactive; Percent inhibition of mRNA gene expression, COX8α ([10]; 2 µM): 17.1 ± 29.5%"
COc1cc(/C=C(\C#N)C(=O)Nc2nnc(C(F)(F)F)s2)ccc1OCc1ccc(C(F)(F)F)cc1C(F)(F)F [XCT790],–,–,–,–,–,–,–,–,–,–,–,–,–,–,"Percent inhibition of mRNA gene expression, COX4I1 ([1]; 12 µM): 46.0 ± 2.16%; Percent inhibition of mRNA gene expression, PPARα ([3]; 12 µM): 16.0 ± 1.70%; Percent inhibition of mRNA gene expression, IDH3α ([4]; 12 µM): 42.6 ± 6.59%; Percent inhibition of mRNA gene expression, Cytochrome C ([7]; 12 µM): 60.8 ± 2.16%; Percent inhibition of mRNA gene expression, COX8α ([10]; 12 µM, mean ± S.D.): 65.0 ± 8.41%"
Acriflavine hydrochloride,–,–,–,–,inconclusive,–,–,–,–,–,–,–,–,–,"Percent inhibition of mRNA gene expression, COX4I1 ([1]; 3 µM): 4.76 ± 8.24%; Percent inhibition of mRNA gene expression, IDH3α ([4]; 3 µM): 74.2% and 74.2 ± 9.92%; Percent inhibition of mRNA gene expression, Cytochrome C ([7]; 3 µM): 41.8% and 41.8 ± 3.72%; Percent inhibition of mRNA gene expression, COX8α ([10]; 3 µM): 30.2 ± 18.2%"
